In patent US9394263B2, “Substituted hetero-azepinones” (priority 2012, dated 2016) one finds IC50 data, which are given here for two molecules.

One test has as its target BIR3 domain of XIAP (Homo sapiens (Human), UniProt P98170). Nature of the test: TR-FRET assay for BIR3: inhibition of binding of XIAP BIR3 domain to Peptide A (SMAC-derived peptide).
Another test addresses BIR2 domain of XIAP (Homo sapiens (Human), UniProt P98170, C202A/C213G). The test can be described thus: TR-FRET assay for BIR2: inhibition of binding of XIAP BIR2 domain to Peptide A (SMAC-derived peptide).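 Note: percent inhibition measured across a concentration series of each compound, from which the IC50 was derived.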 Background: TR-FRET usually uses a lanthanide donor and a delayed reading to cut background.

Structures can show the parent of a compound that is named as a salt. Where two headings read alike, the source gives them in different places.

BIR2 domain of XIAP, sequence (P98170 other isoform, or with tags, fused parts or gaps, stated change not applied): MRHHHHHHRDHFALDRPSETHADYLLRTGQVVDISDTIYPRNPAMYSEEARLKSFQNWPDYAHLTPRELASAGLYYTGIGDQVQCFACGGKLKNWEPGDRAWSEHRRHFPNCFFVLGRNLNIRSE
BIR3 domain of XIAP, sequence (P98170 241-356 with tags or gaps limits assumed): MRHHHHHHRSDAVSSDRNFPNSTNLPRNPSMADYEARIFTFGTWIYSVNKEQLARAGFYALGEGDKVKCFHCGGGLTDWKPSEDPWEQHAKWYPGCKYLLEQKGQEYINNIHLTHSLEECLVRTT
Protocol for BIR2 domain of XIAP: TR-FRET Assay for BIR2 and BIR3
The peptides were labeled with the fluorescent tags FITC or TAMRA and Kd values were determined by fluorescence polarization assay.
The peptide sequence was derivatized with biotin to provide [sequence]-(8-biotin)-OH 1:2 TFA as the substrate for the TR-FRET assay.
The XIAP protein sequence was obtained from the SWISS-PROT protein sequence database and the BIR2 and BIR3 domains were derived from that.
Percentage of inhibition at each concentration was determined to generate an IC50 value for each test compound.

As to `CCN[C@@H](C)C(=O)N[C@@H]1C(=O)N(Cc2nn(-c3ccccc3C#N)c3ccccc23)c2ccccc2O[C@H]1C` [Example 74, (2S)-N-((2S,3S)-5-((1-(2-Cyanophenyl)-1H-indazol-3-yl)methyl)-2-methyl-4-oxo-2,3,4,5-tetrahydrobenzo[b][1,4]oxazepin-3-yl)-2-(ethylamino)propanamide trifluoroacetate], the IC50 is over 54800 nM at BIR3 domain of XIAP (read-out: BIR3 IC50) and 146 nM at BIR2 domain of XIAP (read-out: BIR2 IC50).

Turning to `CN[C@@H](C)C(=O)N[C@H]1CSc2c(NC(=O)C3CCN(C(C)=O)CC3)cccc2N(Cc2cccc3ccccc23)C1=O` [Example 23, 1-Acetyl-piperidine-4-carboxylic acid [(R)-3-((S)-2-methylamino-propionylamino)-5-naphthalen-1-ylmethyl-4-oxo-2,3,4,5-tetrahydro-benzo[b][1,4]thiazepin-9-yl]-amide], the IC50 was over 54800 nM at BIR3 domain of XIAP and 373 nM at BIR2 domain of XIAP.

By IC50 is commonly meant the midpoint of a concentration-inhibition curve.
